Source: patent US20120207737A1, “MEDICAL UTILITY OF GLYCAN-BINDING PROTEINS AND GLYCANS” (UNIVERSITY OF ZURICH, priority 2009, published 2012)
Entries after “also recorded” stand apart in the source; their conditions may differ.

Legend:
[1] = target: T1, Coprinopsis cinerea galectin CGL2, wild type (Genbank AAF34732) (Coprinopsis cinerea, UniProt Q9P4R8); experiment: Isothermal Titration Microcalorimetry (ITC), in vitro binding of C. cinerea galectin CGL2 to synthetic trisaccharide; conditions: 25° C.
T1 construct: amplifying the respective open reading frame from cDNA or available plasmids; made in house; host or cells: Escherichia coli BL21(DE3), vector pET24a
T1 sequence (Q9P4R8 whole entry): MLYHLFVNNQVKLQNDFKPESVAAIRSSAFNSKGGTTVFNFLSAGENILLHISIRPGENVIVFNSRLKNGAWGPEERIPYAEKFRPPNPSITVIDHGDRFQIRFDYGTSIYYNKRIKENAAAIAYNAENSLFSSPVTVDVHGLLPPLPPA
Experimental: The raw data is shown in the upper panel.
Bacterial cell pellets were resuspended in ice-cold phosphate-buffered saline (PBS) [30 mM Na-phosphate pH 7.3, 150 mM NaCl] containing 1 mM phenylmethylsulfonyl fluoride and ruptured using a French press. Cell debris was removed in two consecutive steps of centrifugation at 12000 g for 15 min and 27000 g for 30 min. The supernatant was incubated with lactosyl-sepharose at 4° C. for 1 h and CGL2 was finally eluted at room temperature in PBS containing 200 mM lactose. After size exclusion chromatography on Superose 6 10/300 GL (GE Healthcare) equilibrated in PBS, fractions containing the protein were pooled and concentrated using an Amicon Ultra-4 centrifugal filter device (Millipore) with a molecular weight cutoff of 10 kDa. Protein concentration was calculated by measuring the absorbance at 280 nm, assuming a relation of 1.25 mg mk^−1 to 1 unit absorbance at 280 nm for a path length of 1 cm. Conjugation of purified CGL2 to tetramethylrhodamine (TAMRA) (Molecular Probes) was performed as described in Walser, P. J. et al. (2005) Fungal Genet Biol 42, 293-305.
Experiments were performed with a VP-ITC isothermal titration calorimeter (Microcal, Mass., USA) at 25° C. using purified CGL2 (300 μM in TBS). Gal-β-1,4-Fuc-α-1,6-GlcNAc-β-O—C5H10-NH2 was dissolved in TBS at a concentration of 1.6 mM corrected based on purity estimate by ^1H-NMR (ca. 50-60%). The ligand was titrated into a cell containing the protein solution in 48 injections of 6 μl preceded by a single injection of 2 μl. All injections were performed at intervals of 3 min while stirring at 270 rpm. Experimental data were fitted to a theoretical titration curve using the MCS—ORIGIN software supplied by Microcal.

[2] = test system: C. elegans glycosylation mutants; experiment: Lectin sensitivity of C. elegans glycosylation mutants (development L1 to L4); format: in vivo, Caenorhabditis elegans; conditions: testing of C. elegans glycosylation mutants, forward genetic screen
Experimental: FIG. 4 is a graph showing the CGL2-sensitivity of various C. elegans glycosylation mutants. C. elegans mutants of the genotypes indicated in the X-coordinate were analysed for development from L1 to L4 on CGL2-expressing E. coli as described in the experimental procedures below. See Table 1 below for glycosylation processes encoded by the various C. elegans genes.
FIG. 8 is a bar graph illustrating the RedA(CCL2)-sensitivity of various C. elegans glycosylation mutants. C. elegans mutants of the indicated genotypes were analysed for development from L1 to L4 on RedA-expressing E. coli as described in the below experimental procedures. Mutants not analyzed yet are indicated as n.d. See Table 1 below for glycosylation processes encoded by the various C. elegans genes.
FIG. 9 is a bar graph illustrating the MOA-sensitivity test of various C. elegans glycosylation mutants. C. elegans mutants of the indicated genotypes were analysed for development from L1 to L4 on MOA-expressing E. coli as described in experimental procedures below. Mutants not analyzed yet are indicated as n.d. […]
FIG. 10 is a bar graph illustrating the AAL-sensitivity of various C. elegans glycosylation mutants. C. elegans mutants of the indicated genotypes were analysed for development from L1 to L4 on AAL-expressing E. coli as described in Experimental Procedures. […]

[3] = test system: C. elegans; experiment: C. elegans toxicity plate assay (development L1 to L4 on lectin-expressing E. coli); format: in vivo, Caenorhabditis elegans; conditions: lectin-expressing E. coli cells as food source
Experimental: (§1) FIG. 1 is a bar chart showing the toxicity of various fungal lectins towards C. elegans. C. elegans wildtype (N2) and pmk-1 mutant worms were analysed for development from L1 to L4 on lectin-expressing bacteria as described in the Experimental Procedures. The y-coordinate is the fraction of worms reaching L4 in the presence of bacteria expressing the lectins on the X-coordinate. Fungal lectins analyzed included C. cinerea galectins CGL1 (Genbank AAF34731) and CGL2 (Genbank AAF34732), galectin-related lectin CGL3 (Genbank ABD64675) and lectin RedA (CCL2) (Genbank ACD88750), Xerocomus chrysenteron lectin XCL (Genbank AAL73235) and its ortholog TAP1 from Sordaria macrospora (Genbank CAH03681), Aleuria aurantia lectin AAL (Genbank BAA00451) and Marasmius oreades agglutinin MOA (Genbank AAL47680).
Plasmids for bacterial expression of fungal lectins were constructed by amplifying the respective open reading frame from cDNA or available plasmids and ligating the resulting fragment into pET24a (Invitrogen) using introduced restriction sites. […]
Quantitative data on the effect of CGL2 on C. elegans development was acquired by placing 50 to 100 newly hatched L1 larvae of the indicated genotypes on the plates. After 72 h, the fraction of animals that reached L4 stage was determined.

[4] = test system: H. contortus; experiment: Haemonchus contortus toxicity assay (development L1 to L3, liquid, 96-well); format: in vivo; conditions: bacterivorous stages fed lectin-expressing E. coli
Experimental: as §1, with “FIG. 12” for “FIG. 1”, “towards H. contortus. The nematodes” for “towards C. elegans. C. elegans wildtype (N2) and pmk-1 mutant worms”, “to L3” for “to L4”, “reaching L3” for “reaching L4”, “cinerea galectin” for “cinerea galectins CGL1 (Genbank AAF34731) and”, “(Genbank ABD64675),” for “(Genbank ABD64675) and”
The toxicity towards the above-mentioned parasitic nematode was evaluated in a liquid assay using 96-well cell culture plates. H. contortus eggs were isolated from feces of an infected sheep and hatched on water-agar plates containing Kanamycin (50 μg/ml) and Amphotericin B (2.5 μg/ml). Approximately 30 L1 larvae were collected and transferred to each well, in a total volume of 150 μl 0.1× Earls solution. […] Plates were incubated at 28° C. in the dark, and percentage of larvae that developed to L3 were determined after 7 days.

[5] = TBS, model of one ligand-binding site per protein monomer

| Molecule | entropy of binding (TΔS) ([1]; TBS) [kcal/mol] | enthalpy change (ΔH) [1, 5] [kcal/mol] | number of binding sites (N) [1, 5] | Kd ([1]; purified CGL2 300 μM in TBS, ligand 1.6 mM, one ligand-binding site per protein monomer, read-out: dissociation constant (Kd)) [µM] | glycan that mediates nematotoxicity / is recognized in C. elegans [2] | toxicity towards C. elegans [3] | toxicity towards H. contortus [4] |
| --- | --- | --- | --- | --- | --- | --- | --- |
| CC(=O)N[C@H]1[C@H](OCCCCCN)O[C@H](CO[C@@H]2O[C@@H](C)[C@@H](O[C@@H]3O[C@H](CO)[C@H](O)[C@H](O)[C@H]3O)[C@@H](O)[C@@H]2O)[C@@H](O)[C@@H]1O [Gal-β-1,4-Fuc-α-1,6-GlcNAc-β-O—C5H10—NH2] | -3.31 | -8.85 ± 0.1 | 0.977±0.004 | 86.9 | – | – | – |
| AAL: β-propeller lectin from the ascomycete Aleuria aurantia (Genbank BAA00451) (protein, UniProt P18891 2-313, looked up) Fucose-specific lectin: PTEFLYTSKIAAISWAATGGRQQRVYFQDLNGKIREAQRGGDNPWTGGSSQNVIGEAKLFSPLAAVTWKSAQGIQIRVYCVNKDNILSEFVYDGSKWITGQLGSVGVKVGSNSKLAALQWGGSESAPPNIRVYYQKSNGSGSSIHEYVWSGKWTAGASFGSTVPGTGIGATAIGPGRLRIYYQATDNKIREHCWDSNSWYVGGFSASASAGVSIAAISWGSTPNIRVYWQKGREELYEAAYGGSWNTPGQIKDASRPTPSLPDTFIAANSSGNIDISVFFQASGVSLQQWQWISGKGWSIGAVVPTGTPAGW | – | – | – | – | binds terminal Fuc on a yet to be identified nematode glycoconjugate; also recorded: dependent on GDP-fucose biosynthesis | toxic | toxic |
